The values below come from patent US9340600B2 (Indiana University Research and Technology Corporation, priority 2012, dated 2016).

What all share (format): cell-based
The target of one assay is T1, glucagon receptor (Homo sapiens, UniProt P47871).
T1 construct: expressed in transfected cells; host or cells: HEK293
The experiment in a line: cAMP induction, firefly luciferase-based reporter assay in HEK293 cells co-transfected with glucagon receptor. The note with it: EC50 at Glucagon Receptor. The text has this: (§1) This example describes an exemplary method of testing the biological activity of the peptides of the present disclosures, which method involves assaying cAMP synthesis.
A general note: In a reporter assay the amount or activity of a reporter protein is the signal.

In a further assay the target is T2, GLP-1 receptor (Homo sapiens, UniProt P43220).
T2 construct: expressed in transfected cells; host or cells: HEK293
T2 sequence (P43220 24-463): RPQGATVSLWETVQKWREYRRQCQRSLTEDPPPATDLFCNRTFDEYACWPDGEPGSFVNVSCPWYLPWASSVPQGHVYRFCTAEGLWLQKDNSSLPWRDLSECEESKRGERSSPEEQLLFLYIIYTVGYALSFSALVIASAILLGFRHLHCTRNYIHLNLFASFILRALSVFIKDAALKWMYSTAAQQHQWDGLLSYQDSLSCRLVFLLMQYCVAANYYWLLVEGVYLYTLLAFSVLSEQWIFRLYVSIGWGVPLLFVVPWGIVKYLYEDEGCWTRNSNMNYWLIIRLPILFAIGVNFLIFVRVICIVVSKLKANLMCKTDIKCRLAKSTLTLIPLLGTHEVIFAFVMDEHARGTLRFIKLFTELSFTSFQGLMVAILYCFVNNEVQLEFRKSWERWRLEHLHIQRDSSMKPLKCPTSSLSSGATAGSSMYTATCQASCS
Briefly: cAMP induction, firefly luciferase-based reporter assay in HEK293 cells co-transfected with GLP-1 receptor. The note with it: EC50 at GLP-1 Receptor.
Excerpt: as §1

A further assay concerns the target T3, GIP receptor (Homo sapiens, UniProt P48546).
T3 construct: expressed in transfected cells; host or cells: HEK293
T3 sequence (P48546 22-466): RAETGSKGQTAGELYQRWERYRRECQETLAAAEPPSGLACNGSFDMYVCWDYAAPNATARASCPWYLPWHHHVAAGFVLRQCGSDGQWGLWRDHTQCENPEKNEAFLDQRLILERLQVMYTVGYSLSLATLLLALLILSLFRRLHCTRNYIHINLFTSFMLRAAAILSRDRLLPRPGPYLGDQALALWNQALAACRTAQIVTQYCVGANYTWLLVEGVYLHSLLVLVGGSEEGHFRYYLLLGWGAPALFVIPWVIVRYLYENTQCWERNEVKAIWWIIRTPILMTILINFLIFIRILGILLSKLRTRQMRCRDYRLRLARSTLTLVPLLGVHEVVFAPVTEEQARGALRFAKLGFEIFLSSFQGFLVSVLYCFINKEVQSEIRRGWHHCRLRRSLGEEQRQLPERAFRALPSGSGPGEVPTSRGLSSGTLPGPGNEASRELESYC
The experiment in a line: cAMP induction, firefly luciferase-based reporter assay in HEK293 cells co-transfected with GIP receptor. The settings on record: EC50 at GIP Receptor.
Excerpt: as §1

Setting [1] is: Table 4, analogs of SEQ ID NO: 43 varying at position 3.
Setting [2] is: Table 2, analogs of SEQ ID NO: 18 varying at positions 16-21.
Setting [3] is: Table 5, analogs of SEQ ID NO: 10.

pEC50: −log10 of the molar value. *1 amine or outer side, *2 acyl side, *3 side chain or, on linkers, in order; H or OH if unused. Where a SMILES comes first, the peptide text is derived from it. Where no end group is shown, it is not given here. Side-chain parts run from the residue outwards. [ ]: non-standard residue; d: D form. The star is where a group is joined. γGlu = O=C(O)[C@H](CCC(=O)[*:2])N[*:1]; Palmitoyl = CCCCCCCCCCCCCCCC(=O)*; Nva = CCC[C@H](N)C(=O)O; Aib = CC(C)(N)C(=O)O

What is called pEC50 is the negative decadic logarithm of the EC50, by convention in mol/L.

T1 sequence (P47871 26-477): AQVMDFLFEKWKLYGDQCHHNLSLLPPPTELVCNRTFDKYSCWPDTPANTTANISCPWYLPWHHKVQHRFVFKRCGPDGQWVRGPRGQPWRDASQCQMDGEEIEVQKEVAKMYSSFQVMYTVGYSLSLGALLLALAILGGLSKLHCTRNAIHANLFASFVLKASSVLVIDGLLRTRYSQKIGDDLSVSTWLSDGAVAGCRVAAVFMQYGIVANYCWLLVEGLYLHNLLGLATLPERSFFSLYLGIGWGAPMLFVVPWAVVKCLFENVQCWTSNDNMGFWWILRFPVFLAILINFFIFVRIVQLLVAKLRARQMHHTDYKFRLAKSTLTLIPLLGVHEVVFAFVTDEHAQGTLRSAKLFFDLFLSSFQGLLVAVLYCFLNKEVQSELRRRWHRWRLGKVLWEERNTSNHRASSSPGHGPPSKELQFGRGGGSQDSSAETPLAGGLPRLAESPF

For the compound `CCCCCCCCCCCCCCCC(=O)N[C@@H](CCC(=O)NCCCC[C@H](NC(=O)[C@H](CC(=O)O)NC(=O)[C@H](CO)NC(=O)[C@@H](NC(=O)[C@H](Cc1ccccc1)NC(=O)[C@@H](NC(=O)CNC(=O)[C@H](CCC)NC(=O)C(C)(C)NC(=O)[C@@H](N)Cc1c[nH]cn1)[C@@H](C)O)[C@@H](C)O)C(=O)N[C@@H](CO)C(=O)N[C@@H](CCCCN)C(=O)N[C@@H](Cc1ccc(O)cc1)C(=O)N[C@@H](CC(C)C)C(=O)N[C@@H](CC(=O)O)C(=O)N[C@@H](CCC(=O)O)C(=O)N[C@@H](CCCNC(=N)N)C(=O)N[C@@H](C)C(=O)N[C@@H](C)C(=O)N[C@@H](CCC(N)=O)C(=O)N[C@@H](CC(=O)O)C(=O)N[C@@H](Cc1ccccc1)C(=O)N[C@H](C(=O)N[C@@H](CCC(N)=O)C(=O)N[C@@H](Cc1c[nH]c2ccccc12)C(=O)N[C@@H](CC(C)C)C(=O)N[C@@H](CC(C)C)C(=O)N[C@@H](CCC(=O)O)C(=O)NCC(=O)NCC(=O)N1CCC[C@H]1C(=O)N[C@@H](CO)C(=O)N[C@@H](CO)C(=O)NCC(=O)N[C@@H](C)C(=O)N1CCC[C@H]1C(=O)N1CCC[C@H]1C(=O)N1CCC[C@H]1C(=O)N[C@@H](CO)C(N)=O)C(C)C)C(=O)O` [compound 47] (H-H[Aib][Nva]GTFTSDK([γGlu-Palmitoyl])SKYLDERAAQDFVQWLLEGGPSSGAPPPS-NH2), the negative logarithm of the EC50 (pEC50) on glucagon receptor (setting [1]) was 10.60; at GLP-1 receptor (setting [1]) it was 11.52; at GIP receptor (setting [1]), 11.70.

Take `CCCCCCCCCCCCCCCC(=O)N[C@@H](CCC(=O)NCCCC[C@H](NC(=O)[C@H](CC(=O)O)NC(=O)[C@H](CO)NC(=O)[C@@H](NC(=O)[C@H](Cc1ccccc1)NC(=O)[C@@H](NC(=O)CNC(=O)[C@H](CCC(N)=O)NC(=O)C(C)(C)NC(=O)[C@@H](N)Cc1c[nH]cn1)[C@@H](C)O)[C@@H](C)O)C(=O)N[C@@H](CO)C(=O)N[C@@H](CCCCN)C(=O)N[C@@H](Cc1ccc(O)cc1)C(=O)N[C@@H](CC(C)C)C(=O)N[C@@H](CC(=O)O)C(=O)N[C@@H](C)C(=O)N[C@@H](CCCNC(=N)N)C(=O)N[C@@H](C)C(=O)N[C@@H](C)C(=O)NC(C)(C)C(=O)N[C@@H](CCC(=O)O)C(=O)N[C@@H](Cc1ccccc1)C(=O)N[C@H](C(=O)N[C@@H](CCC(N)=O)C(=O)N[C@@H](Cc1c[nH]c2ccccc12)C(=O)N[C@@H](CC(C)C)C(=O)N[C@@H](CC(C)C)C(=O)N[C@@H](CC(=O)O)C(=O)NCC(=O)NCC(=O)N1CCC[C@H]1C(=O)N[C@@H](CO)C(=O)N[C@@H](CO)C(=O)NCC(=O)N[C@@H](C)C(=O)N1CCC[C@H]1C(=O)N1CCC[C@H]1C(=O)N1CCC[C@H]1C(=O)N[C@@H](CO)C(N)=O)C(C)C)C(=O)O` [compound 22] (H-H[Aib]QGTFTSDK([γGlu-Palmitoyl])SKYLDARAA[Aib]EFVQWLLDGGPSSGAPPPS-NH2): the negative-log EC50 (pEC50) on glucagon receptor (setting [2]) is 11.30; on GLP-1 receptor (setting [2]), 10.96; at GIP receptor (setting [2]) it was 11.40.

In the case of `CCCCCCCCCCCCCCCC(=O)N[C@@H](CCC(=O)NCCCC[C@H](NC(=O)[C@H](CC(=O)O)NC(=O)[C@H](CO)NC(=O)[C@@H](NC(=O)[C@H](Cc1ccccc1)NC(=O)[C@@H](NC(=O)CNC(=O)[C@H](CCC(N)=O)NC(=O)C(C)(C)NC(=O)[C@@H](N)Cc1c[nH]cn1)[C@@H](C)O)[C@@H](C)O)C(=O)N[C@@H](CO)C(=O)N[C@@H](CCCCN)C(=O)N[C@@H](Cc1ccc(O)cc1)C(=O)N[C@@H](CC(C)C)C(=O)N[C@@H](CC(=O)O)C(=O)N[C@@H](CCC(=O)O)C(=O)N[C@@H](CCCNC(=N)N)C(=O)N[C@@H](C)C(=O)N[C@@H](C)C(=O)N[C@@H](CCC(N)=O)C(=O)N[C@@H](CC(=O)O)C(=O)N[C@@H](Cc1ccccc1)C(=O)N[C@H](C(=O)N[C@@H](CCC(N)=O)C(=O)N[C@@H](Cc1c[nH]c2ccccc12)C(=O)N[C@@H](CC(C)C)C(=O)N[C@@H](CC(C)C)C(=O)N[C@@H](CC(=O)O)C(=O)NC(C)(C)C(=O)NCC(=O)N1CCC[C@H]1C(=O)N[C@@H](CO)C(=O)N[C@@H](CO)C(=O)NCC(=O)N[C@@H](C)C(=O)N1CCC[C@H]1C(=O)N1CCC[C@H]1C(=O)N1CCC[C@H]1C(=O)N[C@@H](CO)C(N)=O)C(C)C)C(=O)O` [compound 65] (H-H[Aib]QGTFTSDK([γGlu-Palmitoyl])SKYLDERAAQDFVQWLLD[Aib]GPSSGAPPPS-NH2; N-terminus assumed), the negative-log EC50 (pEC50) was 11.70 at glucagon receptor (setting [3]), 11.52 on GLP-1 receptor (setting [3]) and 11.30 at GIP receptor (setting [3]).

For the compound `CCCCCCCCCCCCCCCC(=O)N[C@@H](CCC(=O)NCCCC[C@H](NC(=O)[C@H](CC(=O)O)NC(=O)[C@H](CO)NC(=O)[C@@H](NC(=O)[C@H](Cc1ccccc1)NC(=O)[C@@H](NC(=O)CNC(=O)[C@H](CCC(N)=O)NC(=O)C(C)(C)NC(=O)[C@@H](N)Cc1c[nH]cn1)[C@@H](C)O)[C@@H](C)O)C(=O)N[C@@H](CO)C(=O)N[C@@H](CCCCN)C(=O)N[C@@H](Cc1ccc(O)cc1)C(=O)N[C@@H](CC(C)C)C(=O)N[C@@H](CC(=O)O)C(=O)N[C@@H](Cc1c[nH]cn1)C(=O)N[C@@H](CCCNC(=N)N)C(=O)N[C@@H](C)C(=O)N[C@@H](C)C(=O)NC(C)(C)C(=O)N[C@@H](CCC(=O)O)C(=O)N[C@@H](Cc1ccccc1)C(=O)N[C@H](C(=O)N[C@@H](CCC(N)=O)C(=O)N[C@@H](Cc1c[nH]c2ccccc12)C(=O)N[C@@H](CC(C)C)C(=O)N[C@@H](CC(C)C)C(=O)N[C@@H](CC(=O)O)C(=O)NCC(=O)NCC(=O)N1CCC[C@H]1C(=O)N[C@@H](CO)C(=O)N[C@@H](CO)C(=O)NCC(=O)N[C@@H](C)C(=O)N1CCC[C@H]1C(=O)N1CCC[C@H]1C(=O)N1CCC[C@H]1C(=O)N[C@@H](CO)C(N)=O)C(C)C)C(=O)O` [compound 25] (H-H[Aib]QGTFTSDK([γGlu-Palmitoyl])SKYLDHRAA[Aib]EFVQWLLDGGPSSGAPPPS-NH2; N-terminus assumed), the pEC50 on glucagon receptor (setting [2]) was 11.30; at GLP-1 receptor (setting [2]), 11.40; at GIP receptor (setting [2]), 11.52.

For `CCCCCCCCCCCCCCCC(=O)N[C@@H](CCC(=O)NCCCC[C@H](NC(=O)[C@H](CC(=O)O)NC(=O)[C@H](CO)NC(=O)[C@@H](NC(=O)[C@H](Cc1ccccc1)NC(=O)[C@@H](NC(=O)CNC(=O)[C@H](CCC(=O)O)NC(=O)C(C)(C)NC(=O)[C@@H](N)Cc1c[nH]cn1)[C@@H](C)O)[C@@H](C)O)C(=O)N[C@@H](CO)C(=O)N[C@@H](CCCCN)C(=O)N[C@@H](Cc1ccc(O)cc1)C(=O)N[C@@H](CC(C)C)C(=O)N[C@@H](CC(=O)O)C(=O)N[C@@H](CCC(=O)O)C(=O)N[C@@H](CCCNC(=N)N)C(=O)N[C@@H](C)C(=O)N[C@@H](C)C(=O)N[C@@H](CCC(N)=O)C(=O)N[C@@H](CC(=O)O)C(=O)N[C@@H](Cc1ccccc1)C(=O)N[C@H](C(=O)N[C@@H](CCC(N)=O)C(=O)N[C@@H](Cc1c[nH]c2ccccc12)C(=O)N[C@@H](CC(C)C)C(=O)N[C@@H](CC(C)C)C(=O)N[C@@H](CCC(=O)O)C(=O)NCC(=O)NCC(=O)N1CCC[C@H]1C(=O)N[C@@H](CO)C(=O)N[C@@H](CO)C(=O)NCC(=O)N[C@@H](C)C(=O)N1CCC[C@H]1C(=O)N1CCC[C@H]1C(=O)N1CCC[C@H]1C(=O)N[C@@H](CO)C(N)=O)C(C)C)C(=O)O` [compound 44] (H-H[Aib]EGTFTSDK([γGlu-Palmitoyl])SKYLDERAAQDFVQWLLEGGPSSGAPPPS-NH2), on GLP-1 receptor (Table 1), the pEC50 is 11.15.

Regarding “H-H[Aib]QGTFTSEYSKYLDERAAQDFVQWLLDGGPSSGAPPPSK([γGlu-γGlu-Palmitoyl])G-NH2 [compound 16]”, the pEC50 on GLP-1 receptor (Table 1) is 11.70.

As to “H-H[Aib]QGTFTSDYSKYLEERAAQDFVQWLLDGGPSSGAPPPSK([γGlu-γGlu-Palmitoyl])G-NH2 [compound 15]”, the pEC50 on glucagon receptor (Table 1) was 11.30; on GLP-1 receptor (Table 1) it was 11.52.

Turning to “H[Aib]QGTFTSDYAKYLDERAAQDFVQWLLDGGPSSGAPPPSK([γGlu-γGlu-Palmitoyl])G-NH2 [compound 17]”, the results for the pEC50 at GLP-1 receptor (Table 1) and on GIP receptor (Table 1) were 11.10 and 10.70, respectively.
